Laboratory results from US9980928B2, “Hydroxy aliphatic substituted phenyl aminoalkyl ether derivatives” (PROUS INSTITUTE FOR BIOMEDICAL RESEARCH, S.A., priority 2012, dated 2018).
Where “and” joins values, the source holds several entries; their conditions need not be identical. Equal entries are not always repeated.

Legend:
[1] = tested on: fmr1 KO mice and wild type mice; experiment: Social behavior test in Fragile X (fmr1 KO) mouse model; type: in vivo; settings: 30 mg/kg i.p. acute
Method: FIG. 4A plots the time (s) that the test mouse devotes to exploring two cylinders: a first cylinder containing a familiar genotype-matched juvenile stimulus mouse and a second cylinder containing a novel stimulus mouse and the total time of exploration (both cylinders) during a 10 min session. FIG. 4B Plots the percentage of time spent near the two cylinders during the 10 min session. FIG. 4C plots the Discrimination index (time exploring the novel stimulus−time exploring the familiar stimulus/total time of exploration×100).
N=10-12 mice per group. Mice had received an acute i.p. injection of saline (WT 1st bar, fmr1 KO 3rd bar) or 30 mg/kg Example 2 (Wild Type 2nd bar, fmr1 KO 4th bar) 24 h before the session. Data are expressed as mean±S.E.M. Two way ANOVA Treatment effect Φ p<0.05, Genotype x Treatment interaction p<0.05, Bonferroni as post hoc ***p<0.001, **p<0.01, *p<0.05.
Example 2 effects on social disability in a model of Fmr1 KO was performed. Social behavior was examined on an open-field that consisted of an arena (70 cm long×70 cm wide×30 cm high) made of Plexiglas. An overhead camera connected to the video-tracking software SMART (Panlab, Spain) was used to monitor the animal's behavior. The experimental design included three sessions:
1) Habituation session Animals were habituated for 10 min to an arena containing two empty transparent cylinders (30 cm diameter×40 cm high) made of Plexiglas. The cylinders were perforated to have interaction points and were located on two corners of the open field. Time exploring the cylinders was registered along the 10 min duration. After the habituation session mice received an acute injection of either saline or Example 2 (30 mg/kg i.p.) and replaced on their cages. 2) Social interaction 24 h later, animals were replaced to the arena containing the two cylinders, one cylinder was empty and the other one contained a stranger individual (stimulus). The time exploring the two cylinders was registered for 10 minutes. The stimulus individual was always a juvenile mouse (less than two months of age), to avoid the group hierarchy and aggressiveness towards non familiar individuals that show adult male mice. In addition, the stimulus individual was genotype matched with the testing mouse. The position of the stimulus individual was counterbalanced between animals. After the sociability session mice received an acute injection of either saline or Example 2 (30 mg/kg i.p.). 3) Social recognition 24 h later, animals were replaced to the arena containing the two cylinders, one cylinder contained the same stimulus individual presented during the social interaction session (familiar) and the other contained a novel stimulus individual. Both stimuli were juvenile animals and genotype matched. The position of the familiar stimulus remained the same as it was in the social interaction session, and counterbalanced between animals. Once the subject mice finished the test they remained individually housed in a separate cage until the other cage partner finalized the test, to avoid exposition to olfactory cues from stimuli mice. In all cases, those mice from the same cage were never exposed to the same stimuli, either familiar or novel. The time exploring the two cylinders was registered for 10 minutes. The discrimination index was calculated as time exploring the novel stimulus mouse−time exploring the familiar stimulus mouse/total time of exploration×100. The arena and cylinders were deeply cleaned between animals to avoid olfactory cues. All measures of exploration were manually registered by the experimenter blind to genotype and treatment. Exploratory behavior was defined as the animal directing its nose towards the cylinder at a distance of <2 cm. A proximal zone of 14 cm from the cylinders was defined as interaction zone and the time spent in these zones was registered as index of exploratory behavior.

mice [2] = experiment: Passive avoidance test; type: in vivo; settings: 30 mg/kg i.p., test phase 24 hours later
Text: The passive avoidance task is a fear-aggravated test used to evaluate learning and memory in rodent models of CNS disorders. In this test, subjects learn to avoid an environment in which an aversive stimulus (such as a footshock) was previously delivered.
The animals can freely explore the light and dark compartments of the chamber and a mild footshock is delivered in one side of the compartment. Animals eventually learn to associate certain properties of the chamber with the footshock. The latency to pass the gate in order to avoid the stimulus is used as an indicator of learning and memory. The passive avoidance task is useful for evaluating the effect of novel chemical entities on learning and memory, as well as studying the mechanisms involved in cognition (Cappon, G. D. Eur J Pharmacol. 2008 579(1-3): 225-8).
A passive avoidance test with Example 2 administered i.p. at 30 mg/kg was conducted to assess the formation of recent and long-term memory (consolidation) using a negative reinforcement (0.6 mA footshock; 2 s).

mice [3] = experiment: Mouse formalin assay (analgesic activity); type: in vivo
Method: The analgesic activity of the compounds of the present invention is determined making use of the mouse formalin test described in Hunskaar, S. J Neurosci Methods 1985, 14(1): 69-76. The hind paw licking time was measured at 5-minute intervals for 30 minutes following subplantar injection of formalin (0.02 mL, 2%). Statistical analysis using one-way ANOVA followed by Dunnett's test was applied for comparison between the test substance-treated and vehicle control groups. P<0.05 was considered significant.

C57BL6 mice = experiment: Maximum tolerated doses, 5 days oral administration; type: in vivo; settings: mouse, doses up to 100 mg/kg/day during 5 days
Text: An alternative evaluation of the toxicity of the compounds of the present invention may be conducted using the method described in Branch, D. R. Exp Toxicol Pathol 2009, 61(2): 133-6 and Emmenegger, U. et al. Neoplasia 2011, 13(1): 40-8. […]

uptake of serotonin = uptake of serotonin (Homo sapiens, UniProt P31645); experiment: Uptake inhibition of serotonin, cellular assay; type: cell-based; settings: read-out: Serotonin reuptake inhibition (IC50 μM)
Method: The effect of the compounds of the present invention as inhibitors of the uptake of norepinephrine and serotonin in cellular assays at concentrations that range from […] to 1 nM is determined following the methods described in Galli, A. et al. J Exp Biol 1995, 198(Pt. 10): 2197-212 and Gu, H. et al. J Biol Chem. 1994, 269(10):7124-30.

uptake of serotonin, sequence (P31645 whole entry): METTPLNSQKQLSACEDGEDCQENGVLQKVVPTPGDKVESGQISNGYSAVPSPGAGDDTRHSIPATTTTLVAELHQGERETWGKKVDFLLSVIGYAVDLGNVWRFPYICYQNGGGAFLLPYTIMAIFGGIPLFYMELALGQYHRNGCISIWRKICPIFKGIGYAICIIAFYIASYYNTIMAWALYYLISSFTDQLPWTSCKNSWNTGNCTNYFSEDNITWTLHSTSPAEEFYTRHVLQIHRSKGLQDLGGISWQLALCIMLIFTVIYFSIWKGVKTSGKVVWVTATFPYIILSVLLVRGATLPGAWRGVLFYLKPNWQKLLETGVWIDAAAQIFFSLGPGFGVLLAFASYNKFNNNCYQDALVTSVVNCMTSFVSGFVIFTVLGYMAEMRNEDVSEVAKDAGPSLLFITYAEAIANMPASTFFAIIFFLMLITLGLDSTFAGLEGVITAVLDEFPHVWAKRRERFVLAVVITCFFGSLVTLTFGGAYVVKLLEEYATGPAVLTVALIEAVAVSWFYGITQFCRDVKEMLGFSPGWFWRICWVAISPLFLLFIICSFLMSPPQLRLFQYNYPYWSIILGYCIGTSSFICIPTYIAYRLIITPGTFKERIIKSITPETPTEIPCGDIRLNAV

Structure (SMILES): CNCCC(Oc1ccc(CCO)cc1)c1ccccc1.Cl (single isomer, unassigned) [Example 2, 2-[4-[3-(Methylamino)-1-phenylpropoxy]phenyl]ethanol hydrochloride]
- time exploring the familiar stimulus (FIG. 4A) ([1]; WT and fmr1 KO mice): significantly reduced
- social behavior alteration / social abnormalities ([1]; fmr1 KO mice): completely restored
- time exploring the novel stimulus mouse ([1]; fmr1 KO mice): rose at levels comparable to those detected in wild type animals
- time spent near the familiar individual (FIG. 4B) ([1]; fmr1 KO mice): reducing
- time spent near the novel stimulus (FIG. 4B) ([1]; fmr1 KO mice): significantly increased
- social recognition ([1]; wild type mice): did not modify
- time on the platform vs saline-treated group (recent memory formation) (mice [2]): significantly longer time on the platform
- analgesic activity following formalin challenge (hind paw licking time) (mice [3]; 3 mg/kg oral): significant analgesic activity
- analgesic activity following formalin challenge (hind paw licking time) (mice [3]; 30 mg/kg intraperitoneal): significant analgesic activity
- analgesic activity following formalin challenge (hind paw licking time) (mice [3]; 30 mg/kg oral): significant analgesic activity
- analgesic activity following formalin challenge (hind paw licking time) (mice [3]; 90 mg/kg oral): significant analgesic activity
- oral toxicity, toxic effect (C57BL6 mice): did not show any toxic effect
- IC50 (uptake of serotonin): 0.328 µM and 0.348 µM
